From patent US12161675B2, “Production method for culture supernatant preparation” (LABORATORY OF CELL APPLIED TECHNOLOGIES, CO, priority 2018, dated 2024)

Key:
[1] = tested on: VEGF gene; assay: VEGF gene expression by real-time PCR in adipose tissue-derived mesenchymal stromal cells (ASC); assay type: cell-based, human; details: 48 hours; for Value of mRNA relative quantification (VEGF): 0 ng/mL = 1.00
Experimental: (§1) Adipose tissue-derived mesenchymal stromal cells extracted by subjecting normal human adipose tissues to an enzyme treatment were cultured using a DME medium (Dulbecco's modified eagle medium manufactured by Gibco, high glucose) including 20% fetal bovine serum (FBS) in a non-treated culture flask (manufactured by FALCON) as primary culture. The primary culture cells right before confluency were recovered by an enzyme treatment, seeded on a non-treated 12-well culture plate (manufactured by Sumitomo Bakelite Co., Ltd.) using the same medium, and cultured until becoming confluent.
After confirming that the cells became confluent, the medium was removed and the cell surface was rinsed with PBS (Dulbecco's phosphate buffered saline manufactured by DS Pharma Biomedical Co., Ltd.).
(§2) After rinsing the cells, the medium was replaced with an FBS-free DME medium or HBSS (Hanks' balanced salt solution manufactured by Sigma-Aldrich Co.)-HEPES. Subsequently, 12 wells were divided into 4 groups each consisting of 3 wells, and the FBS-free DME medium was cultured in a 5% CO2 incubator (Reference example) and HBSS-HEPES was cultured in an incubator (Example). The culture supernatant in each well was recovered immediately after replacement (0 hours) and 3 hours, 6 hours, 24 hours, and 48 hours thereafter.
After recovering the culture supernatant as described above, an RNA extraction solution ISOGEN (Nippon Gene Co., Ltd., No. 319-90211) was added to each well in an amount of 400 microliters and the total RNAs were extracted from the cells in accordance with a conventional method. The precipitate of the total RNAs obtained by using Ethachinmate (Nippon Gene Co., Ltd., No. 312-01791) was dissolved in nuclease-free water. The concentration of the total RNAs was measured using 1.5 microliters of the dissolved RNAs by NanoDrop (Thermo Fisher Scientific). One hundred nanograms of the total RNAs thus obtained were used to synthesize complementary DNA using an iScript cDNA synthesis kit (Bio-Rad Laboratories, Inc., No. 1708891), and the resulting complementary DNA was used for quantifying an expression level of each gene by real-time PCR (Rotor-Gene Q manufactured by QIAGEN).
The synthesized DNA, primers (QuantiTect Primer Assay, QIAGEN) specific for the gene to be detected and quantified, and a real-time PCR agent (RotorGene SYBR Green, QIAGEN) were mixed, and real-time PCR was performed by using the Rotor-Gene Q system (QIAGEN) to amplify fragments of the gene to be detected and quantified. In this operation, primers specific for β-Actin as a housekeeping gene were used for amplification in the same manner, and this amplification curve was used as a reference to relatively calculate a quantitative value of the gene desired to be detected and quantified. […]

[2] = tested on: VEGF protein; assay: VEGF protein in ASC culture supernatant by QUANTIKINE ELISA; assay type: cell-based, human; details: 48 hours; for VEGF concentration: ASC culture supernatant, 0 ng/mL gave 199.5
Experimental: as §1, §2
The culture supernatant recovered as described in cell culture and recovery of culture supernatant was passed through a filter having a diameter of 0.22 micrometers to prepare a sample for protein quantification.
Protein quantification of the sample was performed by using the QUANTIKINE ELISA (Human VEGF, FGF-2) kit from R&D Systems, Inc. and a quantitative value of each protein was obtained in accordance with the protocol of the kit.
The rinsed cells were divided into 4 groups each consisting of 3 wells and their culture media were replaced with HBSS-HEPES added with PGE1 (Prostandin manufactured by Maruishi Pharmaceutical. Co., Ltd.) at a concentration of 0 ng/ml, 4 ng/ml, 40 ng/ml, and 400 ng/ml, followed by culturing in an incubator (Example). At 48 hours after the replacement, the culture supernatant was recovered from each well and subjected to protein quantification using QUANTIKINE ELISA Human VEGF (manufactured by R&D Systems, Inc.). […] The complementary DNA was used to relatively quantify the VEGF gene expression level by real-time PCR (Rotor-Gene Q manufactured by QIAGEN).
After rising, three groups were each added with 3 mL, 2 mL, or 1 mL of HBSS (Hanks' balanced salt solution manufactured by Sigma-Aldrich Co.)-HEPES pH7.4 and cultured for 48 hours in an incubator (Example). Subsequently, each culture supernatant was recovered in a 5 mL tube (manufactured by BD Falcon) and the VEGF protein was quantified by using QUANTIKINE ELISA Human VEGF (manufactured by R&D Systems, Inc.). […] Then, the complementary DNA was used to relatively quantify the VEGF gene expression level by real-time PCR (Rotor-Gene Q manufactured by QIAGEN). […]

[3] = Storage stability of freeze-dried culture supernatant (VEGF protein by ELISA); assay type: physicochemical; details: for Value of VEGF relative quantification at each storage temperature: trehalose 250 mM
Experimental: As was in Example 5, the culture supernatant after 48 hours in the second culturing step was recovered and the culture supernatant obtained by centrifugal separation (740G, 5 minutes) was divided into 2 groups, a no addition group and a group with addition of 250 mM trehalose (manufactured by Hayashibara Co., Ltd.). Subsequently, the culture supernatant was passed through a filtration filter (KURABO INDUSTRIES Ltd.) having a membrane pore diameter of 0.2 micrometers and aliquoted into syringes (Terumo Corp.). The syringes were sealed in sterile bags, frozen in a −80° C. freezer, and then transferred to the inside of the freeze-drying device (Yamato Scientific Co., Ltd.) to perform freeze drying. After the completion of freeze drying, the syringes were sealed with luer caps for syringe (Terumo Corp.). The freeze-dried samples were stored in a sealed state under three temperature conditions of −80° C., 4° C., and 25° for 3 weeks. After 3 weeks, the freeze-dried samples were resuspended in water for injection (manufactured by Otsuka Pharmaceutical Co., Ltd.) and protein quantification was performed using QUANTIKINE ELISA Human VEGF (manufactured by R&D Systems, Inc.). As a quantitative value, a relative quantitative value of the VEGF protein at each storage temperature was calculated by taking a quantitative value of the VEGF protein included in the culture supernatant stored at −80° C. for 3 weeks as a reference.

[4] = ASC, HBSS-HEPES with PGE1 0 to 400 ng/ml

Structure (SMILES) | Value of mRNA relative quantification (VEGF) ([1]; ASC in HBSS-HEPES with PGE1 4 ng/mL) | Value of mRNA relative quantification (VEGF) ([1]; ASC in HBSS-HEPES with PGE1 40 ng/mL) | Value of mRNA relative quantification (VEGF) ([1]; ASC in HBSS-HEPES with PGE1 400 ng/mL) | relative quantitative value of the mRNA expression level (VEGF) [1, 4] | VEGF concentration ([2]; HBSS-HEPES with PGE1 4 ng/mL) [pg/mL] | VEGF concentration ([2]; HBSS-HEPES with PGE1 40 ng/mL) | VEGF concentration ([2]; HBSS-HEPES with PGE1 400 ng/mL) [pg/mL] | protein amount (VEGF) in culture supernatant [2, 4] | Value of VEGF relative quantification at each storage temperature ([3]; freeze-dried culture supernatant stored 3 weeks at 4° C., relative to −80° C.) | Value of VEGF relative quantification at each storage temperature ([3]; freeze-dried culture supernatant stored 3 weeks at 25° C., relative to −80° C.) | Value of VEGF relative quantification at each storage temperature ([3]; freeze-dried culture supernatant stored 3 weeks at −80° C. (reference)) | VEGF protein after storage of freeze-dried culture supernatant ([3]; stored 3 weeks under the environment of 25° C., trehalose final concentration 250 mM)
CCCCC[C@H](O)/C=C/[C@H]1[C@H](O)CC(=O)[C@@H]1CCCCCCC(=O)O [PGE1] | 0.88 | 1.04 | 0.97 | remained substantially constant | 201.8 | 281. 5 pg/mL | 299.0 | tended to increase |  |  |  | 
OC[C@H]1O[C@H](O[C@H]2O[C@H](CO)[C@@H](O)[C@H](O)[C@H]2O)[C@H](O)[C@@H](O)[C@@H]1O [Trehalose, trehalose] |  |  |  |  |  |  |  |  | 0.96 | 0.73 | 1.00 | suppressed the reduction
